Laboratory results published in patent US20120196919A1, “EX-VIVO TREATMENT OF IMMUNOLOGICAL DISORDERS WITH PKC-THETA INHIBITORS” (NEW YORK UNIVERSITY, priority 2009, published 2012).
Values belong to the compound of their own block, whether it stands above or below them.

Experiments:
PKC-theta = PKC-theta (Homo sapiens, UniProt Q04759); experiment: luciferase assay for inhibition of the kinase activity of PKC-theta; type: biochemical; details: luciferase assay of US 2005/0124640
Description: The preparation of these compounds and the luciferase assay used to determine the IC50 for inhibition of the kinase activity of PKC-theta are described in US Patent Application Publication number 2005/0124640. For the in vitro and ex vivo assays above, compounds were dissolved in DMSO. T cells were pretreated with indicated concentrations of the inhibitors or DMSO control for 30 min at 37° C. and washed three times.

CD4+CD25+ Treg cells [1] = experiment: Treg/Teff co-culture on anti-CD3 mAb, cell proliferation by Alamar Blue; type: cell-based, human; details: Treg treated 0.001-1 microM 30 min, washed, Treg/Teff 1:9, anti-CD3; proliferation after 96 h (FIG. 1b)
Description: (§1) Treg cells and CD4^+CD25^− Teff (non-Treg) cells were treated with Compound Ia at 0.001-1 microM (a-b) for 30 min, or at 1 microM for 0-60 min (c). Treated cells were mixed with CD4^+CD25^− T (Teff) cells at 1:9 ratio and plated on immobilized anti-CD3 mAb. The supernatants were analyzed for IFN-gamma after 24-48 hours (a and c). Cell proliferation was determined after 96 hours (b). Average of four different experiments is shown.
CD4^+CD25^+ regulatory T cells (Tregs) suppress the function of CD4^+ and CD8^+ effector cells (Teff) through an antigen receptor and cell contact mechanism. […] IFN-gamma secretion and cell proliferation were measured after 24 and 96 hours respectively. […]
(§2) CD4^+CD25^+ Treg and CD4^+CD25^− Teff cells were purified from the peripheral blood of healthy human donors or from 25 patients with Rheumatoid arthritis in different stages (accordingly to disease activity score (DAS)) as described in the literature M. L. Prevoo, et al., Arthritis and rheumatism, 1995, 38, 44; A. Zanin-Zhorov, et al., J. Clin. Invest, 2006, 116, 2022). […] Cytokine secretion was determined by ELISA as previously described A. Zanin-Zhorov, et al., ibid., 2006), using Human IFN-gamma Cytose™ (Biosource; Camarillo, Calif.). Proliferation was assessed by Alamar Blue™ assay (Invitrogen) as previously described (S. A. Ahmed, et al., J. immunological Methods, 1994, 170, 211-224). […]

[2] = test system: Treg cells purified from RA patients; experiment: Suppression of IFN-gamma from autologous Teff by Treg purified from RA patients; type: cell-based, human; details: Treg from 25 RA patients, 1 microM 30 min, Treg/Teff 1:3, 24-48 h (FIG. 5d)
Description: Colitis was induced in C57BL/10.PL TCR alpha^−/−beta^−/− mice as described in Methods summary. 5a—numbers of mice were 5 (PBS), 8 (Teff), 7 (Teff/Treg control), 7 (Teff/Treg PKC-theta inhibitor). 5b-Histology slides of distal colon for the different groups. Normal histology is observed in PKC-theta treated mice. 5c, 5d-Freshly purified Treg from healthy donors and RA patients were treated or not with PKC-theta inhibitor for 30 min at 1 microM, washed three times, mixed with CD4^+CD25^− T cells at ratio 1:3, and plated on anti-CD3 mAb. The supernatants were analyzed for IFN-gamma after 24-48 hours. Combined data of three independent experiments are presented. % Treg-mediated inhibition was calculated as: 1−level of IFN-gamma in presence of Treg/level of IFN-gamma in absence of Treg)φ100%. P values were calculated by t-test. […]
as §2, with “Calif.).” for “Calif.). Proliferation was assessed by Alamar Blue™ assay (Invitrogen) as previously described (S. A. Ahmed, et al., J. immunological Methods, 1994, 170, 211-224).”

CD4+CD25+ Treg cells [3] = experiment: Treg/Teff co-culture on anti-CD3 mAb, IFN-gamma secretion by ELISA; type: cell-based, human
Description: as §1
Treg were treated with 1 microM PKC-theta inhibitors with different IC50 values as indicated on graph. Treated cells were mixed with CD4^+CD25^− T (Teff) cells at 1:9 ratio and plated on immobilized anti-CD3 mAb. The supernatants were analyzed for IFN-gamma after 24-48 hours. An average of four different experiments is shown. As shown in the graph, the enhancement of suppressive effect on IFN-gamma secretion generally correlates with the potency of the inhibitors.
Treated Treg and non-Treg, or siRNA-transfected Treg were mixed with CD4^+CD25^− T (Teff) cells at 1:9 ratio and plated on immobilized anti-CD3 mAb. The supernatants were analyzed for IFN-gamma after 24-48 hours. An average of four different experiments is shown.
CD4^+CD25^+ regulatory T cells (Tregs) suppress the function of CD4^+ and CD8^+ effector cells (Teff) through an antigen receptor and cell contact mechanism. […] We investigated whether inhibition of PKC-theta may affect the suppressive function of human CD4^+CD25^+ Treg cells in vitro. For this purpose, we treated CD4^+CD25^+ Treg or CD4^+CD25^− Teff cells (Treg or non-Treg respectively in FIGS. 1a and 1b) with a specific PKC-theta inhibitor, namely, Compound Ia, washed and cultured the cells with untreated Teff cells in a ratio of 1:9 on stimulatory anti-CD3 antibodies. IFN-gamma secretion and cell proliferation were measured after 24 and 96 hours respectively. […] Moreover, the effect of PKC-theta inhibitor on Treg function was time-dependent; maximal levels of enhanced suppressive function were achieved after 30 min of Treg treatment with the compound (FIG. 1c).
as §2

CD4+CD25+ Treg cells [4] = experiment: T cell transfer model of colitis with ex vivo treated Treg; type: in vivo, C57BL/10.PL TCR alpha-/-beta-/- mice; details: inhibitor treated Treg
Description: Colitis was induced in C57BL/10.PL TCR alpha^−/−beta^−/− mice as described in Methods summary. 5a—numbers of mice were 5 (PBS), 8 (Teff), 7 (Teff/Treg control), 7 (Teff/Treg PKC-theta inhibitor). 5b-Histology slides of distal colon for the different groups. Normal histology is observed in PKC-theta treated mice. 5c, 5d-Freshly purified Treg from healthy donors and RA patients were treated or not with PKC-theta inhibitor for 30 min at 1 microM, washed three times, mixed with CD4^+CD25^− T cells at ratio 1:3, and plated on anti-CD3 mAb. The supernatants were analyzed for IFN-gamma after 24-48 hours. Combined data of three independent experiments are presented. % Treg-mediated inhibition was calculated as: 1−level of IFN-gamma in presence of Treg/level of IFN-gamma in absence of Treg)φ100%. P values were calculated by t-test.
Next, we determined the ability of PKC-theta inhibitor Ia to up-regulate Treg function in vivo using a colitis model in TCR alpha^−/−beta^−/− mice induced by transfer of effector CD4^+CD25^−CD45RB^+ Teff cells (F. Powrie, et al., J. Exp. Med. 1996, 183, 2669).
[…] Disease progression was monitored by body weight loss, diarrhea and histology analysis as previously described (F. Powrie, et al., J. Exp. Med. 1996, 183, 2669). P values were determined by Mann-Whitney test or two-tailed t-test by using the GraphPad Prism software (San Diego, Calif.).

Chain of PKC-theta (Q04759 whole entry): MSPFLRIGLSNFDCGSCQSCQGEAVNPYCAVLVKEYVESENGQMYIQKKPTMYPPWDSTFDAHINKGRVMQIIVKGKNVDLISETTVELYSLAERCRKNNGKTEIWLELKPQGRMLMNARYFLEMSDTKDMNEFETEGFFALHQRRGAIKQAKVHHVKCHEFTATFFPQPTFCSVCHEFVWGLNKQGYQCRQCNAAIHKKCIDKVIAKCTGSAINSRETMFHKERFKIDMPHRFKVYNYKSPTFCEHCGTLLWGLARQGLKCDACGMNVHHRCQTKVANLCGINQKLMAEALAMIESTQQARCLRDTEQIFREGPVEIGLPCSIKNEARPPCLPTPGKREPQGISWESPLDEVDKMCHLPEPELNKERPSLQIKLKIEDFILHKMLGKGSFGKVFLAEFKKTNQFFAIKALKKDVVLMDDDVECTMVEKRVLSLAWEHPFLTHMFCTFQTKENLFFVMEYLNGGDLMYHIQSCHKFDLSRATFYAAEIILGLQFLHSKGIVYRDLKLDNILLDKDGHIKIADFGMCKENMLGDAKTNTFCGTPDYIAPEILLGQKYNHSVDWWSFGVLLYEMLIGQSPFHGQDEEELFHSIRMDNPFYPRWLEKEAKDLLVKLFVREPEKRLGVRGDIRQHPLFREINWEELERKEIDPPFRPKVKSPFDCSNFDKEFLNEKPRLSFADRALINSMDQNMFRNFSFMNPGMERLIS

IC50 (PKC-theta): 0.7 nM
Compound: NC[C@H]1CC[C@H](CNc2nc(NCc3ccccc3OC(F)(F)F)ncc2[N+](=O)[O-])CC1 [Compound Ia]
suppressive ability of Treg cells (cell proliferation) (CD4+CD25+ Treg cells [1]): significantly up-regulated
suppressive function of Treg cells purified from RA patients (IFN-gamma) [2]: significantly increased
induction of suppressive activity in treated Teff (non-Treg) added to untreated responder Teff (CD4+CD25+ Treg cells [3]; CD4+CD25- Teff treated, 1:9 ratio (FIGS. 1a and 1b)): does not induce suppressive activity
suppressive ability of Treg cells (IFN-gamma production by Teff) (CD4+CD25+ Treg cells [3]; Treg treated 0.001-1 microM 30 min, washed, Treg/Teff 1:9, anti-CD3, IFN-gamma after 24 h (FIG. 1a)): significantly up-regulated
treatment time for maximal levels of enhanced suppressive function (CD4+CD25+ Treg cells [3]; Treg treated at 1 microM for 0-60 min, IFN-gamma readout (FIG. 1c)): 30 min
ability of Treg cells to inhibit IFN-gamma secretion in Teff cells (CD4+CD25+ Treg cells [3]; treated or siRNA-transfected Treg, Treg/Teff 1:9, 24-48 h (FIG. 4)): increased
mice with normal weight gain and normal histology of the distal colon (CD4+CD25+ Treg cells [4]; 1:4 ratio of Treg/Teff): 7 of 8
protection of the recipient mice from colitis (CD4+CD25+ Treg cells [4]; 1:4 ratio of Treg/Teff (FIGS. 5a and 5b)): ~100%

IC50 (PKC-theta): 8 nM
Compound: O=[N+]([O-])c1cnc(SCc2ccccc2Cl)nc1NCC1CCNCC1 [Ic]

IC50 (PKC-theta): 1000 nM
Compound: N[C@H]1CC[C@H](CNc2nc(NCc3ccccc3OC(F)(F)F)ccc2[N+](=O)[O-])CC1 [Ie]

IC50 (PKC-theta): 300 nM
Compound: O=[N+]([O-])c1cnc(NCC2CCNCC2)nc1NCc1ccccc1OC(F)(F)F [Id]

IC50 (PKC-theta): 1 nM
Compound: N[C@H]1CC[C@H](CNc2nc(NCc3ccccc3OC(F)(F)F)ncc2[N+](=O)[O-])CC1 [Ib]
